Results published in US20130280343A1, “Food Products Derived From Cannabinoid-Administered Livestock” (priority 2012, published 2013).

How the values were obtained:
[1] = system: mice; conditions: orally administered; cited from earlier work
[2] = system: mice injected with 5-Hydroxytryptamine (a nociceptive agent); conditions: orally administered; cited from earlier work
[3] = system: free range broiler chickens; assay: dimethylheptylpyran capsules orally administered to free range broiler chickens; type: in vivo; conditions: 1 μg in cod liver oil capsules, twice-daily oral
Experimental: In a final embodiment of the present invention, soft gel capsules containing 1 μg of dimethylheptylpyran dissolved in cod liver oil are twice-daily orally administered to free range broiler chickens. Dimethylheptylpyran is an extremely potent cannabinoid receptor agonist.

[4] = accumulation of Δ^9-THC in milk of dairy water buffalo grazing Cannabis indica Himalaya Gold; type: in vivo; conditions: roughly 400 g Δ^9-THC orally per day, 20 L milk per day
Excerpt: In a second embodiment of the present invention, dairy water buffalo are grazed in a pasture cultivated for their consumption which contains cereals, legumes, and Cannabis indica “Himalaya Gold” (a hardy, outdoor cultivar of Cannabis). The approximate Δ^9-THC, CBN, and CBD levels of the Himalaya Gold Cannabis cultivar are 10.0%, 1.0%, and 0.3%, respectively. The animals are left to graze according to their preference, and all three types of plants are consumed in significant quantity. Particularly, the water buffalo consume about 32 kg of raw plant material per day, of which an average of 4 kg is Cannabis. Thus, roughly 400 g of Δ^9-THC is orally administered to the animals each day.
The cannabinoids present in the Himalaya Gold Cannabis induce physiological effects which affect the composition of the water buffalo's milk. More specifically, several fat-soluble cannabinoids, including Δ^9-THC and 11-Hydroxy-Δ^9-tetrahydrocannabinol (11-OH-Δ^9-THC; an active metabolite of Δ^9-THC), accumulate in the milk during lactogenesis. The cannabinoid-containing raw milk is then harvested from the water buffalo by use of a rotary parlor milking station. […]

[5] = system: humans; conditions: orally administered; cited from earlier work
[6] = system: humans; assay: lowest observed effect level (LOEL) for psychoactive effects in humans; type: in vivo; conditions: orally administered
Experimental: Contrasting their extremely low toxicity, cannabinoids generally have very low effective doses. […] In humans, the lowest observed effect level (LOEL) for psychoactive effects induced by orally administered Δ^9-THC is 0.04 mg/kg, or 3.2 mg for the average 80 kg adult human. As a result, the therapeutic indices (LD50/ED50) of most cannabinoids are astoundingly high. It would be extremely difficult, if not impossible, for a human or animal to suffer permanent damage due to an intake of cannabinoids, absent a targeted effort to cause such damage.

[7] = accumulation of Δ^9-THC in adipose tissue of finishing hogs given Cannabis tincture in water; conditions: 100 mg Δ^9-THC orally each day

SMILES: C=C(C)[C@@H]1CCC(C)=C[C@H]1c1c(O)cc(CCCCC)cc1O [CBD, cannabidiol]
- median lethal dose (LD50) [1]: 13,500 mg/kg

SMILES: CCCCCc1cc(O)c2c(c1)OC(C)(C)c1ccc(C)cc1-2 [CBN, cannabinol]
- median lethal dose (LD50) [1]: 12,700 mg/kg
- median effective dose (ED50) for antinociception [2]: 46.2 mg/kg

SMILES: CCCCCC(C)C(C)c1cc(O)c2c(c1)OC(C)(C)C1=C2CC(C)CC1 (stereo not shown) [dimethylheptylpyran]
- calming effect [3]: significantly calms the chickens
- effect on aggressive behavior [3]: inhibits aggressive behavior

SMILES: [Cl-].[Na+] [sodium chloride]
- median lethal dose (LD50) [1]: 4,000 mg/kg

SMILES: CCCCCc1cc(O)c2c(c1)OC(C)(C)[C@@H]1CCC(C)=C[C@@H]21 [Δ^9-THC, delta-9-tetrahydrocannabinol]
- average transfer rate into milk [4]: 0.15%
- Δ^9-THC content of milk [4]: around 30 mg per L
- median lethal dose (LD50) [1]: 21,600 mg/kg
- lowest observed effect level (LOEL) for psychoactive effects [5]: 0.04 mg/kg
- LOEL for psychoactive effects, for the average 80 kg adult human [6]: 3.2 mg
- average storage rate in adipose tissue [7]: 0.1%
- median effective dose (ED50) for antinociception [2]: 1.0 mg/kg
